Results as given in ChEMBL document CHEMBL4028867, “Design, Synthesis, and Characterization of N-Oxide-Containing Heterocycles with in Vivo Sterilizing Antitubercular Activity” (J Med Chem, 2017).
Values after ≈ are worked out from the molar mass of the structure shown.

Key:
Type in all cases: functional
[1] = tested on: Mycobacterium tuberculosis; assay: Antitubercular activity against capreomycin resistant Mycobacterium tuberculosis H37Rv after 24 hrs by MABA method
[2] = tested on: Mycobacterium tuberculosis; assay: Antitubercular activity against bedaquiline resistant Mycobacterium tuberculosis H37Rv after 24 hrs by MABA method
[3] = tested on: Mycobacterium tuberculosis; assay: Antitubercular activity against moxifloxacin resistant Mycobacterium tuberculosis H37Rv after 24 hrs by MABA method
[4] = tested on: Mycobacterium tuberculosis; assay: Antitubercular activity against rifampicin resistant Mycobacterium tuberculosis H37Rv ATCC 35838 after 24 hrs by MABA method; details: H37Rv ATCC 35838, 24 h
[5] = tested on: Mycobacterium tuberculosis; assay: Antitubercular activity against streptomycin resistant Mycobacterium tuberculosis H37Rv ATCC 35820 after 24 hrs by MABA method; details: H37Rv ATCC 35820, 24 h
[6] = tested on: Mycobacterium tuberculosis; assay: Antitubercular activity against isoniazid resistant Mycobacterium tuberculosis H37Rv ATCC 35822 after 24 hrs by MABA method; details: H37Rv ATCC 35822, 24 h

Row | Structure (SMILES) | MIC90 [1] | MIC90 [2] | MIC90 [3] | MIC90 [4] | MIC90 [5] | MIC90 [6]
1 | NC(=O)c1c(COc2ccccc2/C=N/NC(=O)c2ccncc2)no[n+]1[O-] | > 262 µM | 0.81 µM (≈ 0.31 µg/mL) | 0.81 µM (≈ 0.31 µg/mL) | 0.44 µM (≈ 0.168 µg/mL) | 27.4 µM (≈ 10.5 µg/mL) | > 262 µM
2 | NC(=O)c1c(COc2ccc(/C=N/NC(=O)c3ccncc3)cc2)no[n+]1[O-] | > 262 µM | 6.38 µM (≈ 2.44 µg/mL) | 0.66 µM (≈ 0.252 µg/mL) | 1.99 µM (≈ 0.761 µg/mL) | > 262 µM | > 262 µM
3 | COc1c(N2C[C@@H]3CCCN[C@@H]3C2)c(F)cc2c(=O)c(C(=O)O)cn(C3CC3)c12 [MOXIFLOXACIN] | 0.35 µM (≈ 0.141 µg/mL) | 0.26 µM (≈ 0.104 µg/mL) | > 8 µM | 0.12 µM (≈ 0.0482 µg/mL) | 0.36 µM (≈ 0.145 µg/mL) | 0.23 µM (≈ 0.0923 µg/mL)
4 | NC(=O)c1c(COc2cccc(/C=N/NC(=O)c3ccncc3)c2)no[n+]1[O-] | > 262 µM | 2.56 µM (≈ 0.979 µg/mL) | 1.22 µM (≈ 0.466 µg/mL) | 2.31 µM (≈ 0.883 µg/mL) | > 262 µM | > 262 µM
5 | COc1nc2ccc(Br)cc2cc1[C@@H](c1ccccc1)[C@@](O)(CCN(C)C)c1cccc2ccccc12 [BEDAQUILINE] | 0.06 µM (≈ 0.0333 µg/mL) | 1.7 µM (≈ 0.944 µg/mL) | 0.06 µM (≈ 0.0333 µg/mL) | 0.01 µM (≈ 0.00556 µg/mL) | 0.06 µM (≈ 0.0333 µg/mL) | 0.01 µM (≈ 0.00556 µg/mL)
6 | O=C(N/N=C/c1ccc2no[n+]([O-])c2c1)c1ccncc1 | – | 1.2 µM (≈ 0.34 µg/mL) | 5.72 µM (≈ 1.62 µg/mL) | 3.78 µM (≈ 1.07 µg/mL) | 17 µM (≈ 4.81 µg/mL) | 8.59 µM (≈ 2.43 µg/mL)
7 | CN[C@@H]1[C@H](O[C@H]2[C@H](O[C@H]3[C@H](O)[C@@H](O)[C@H](N=C(N)N)[C@@H](O)[C@@H]3N=C(N)N)O[C@@H](C)[C@]2(O)C=O)O[C@@H](CO)[C@H](O)[C@H]1O [STREPTOMYCIN] | 2.55 µM (≈ 1.48 µg/mL) | – | – | – | > 100 µM | –
8 | CO[C@H]1/C=C/O[C@@]2(C)Oc3c(C)c(O)c4c(O)c(c(/C=N/N5CCN(C)CC5)c(O)c4c3C2=O)NC(=O)/C(C)=C\C=C\[C@H](C)[C@H](O)[C@@H](C)[C@@H](O)[C@@H](C)[C@H](OC(C)=O)[C@@H]1C [RIFAMPIN] | 0.21 µM (≈ 0.173 µg/mL) | 0.04 µM (≈ 0.0329 µg/mL) | – | > 1 µM | 0.03 µM (≈ 0.0247 µg/mL) | 0.01 µM (≈ 0.00823 µg/mL)
9 | C[C@@H]1NC(=O)[C@@H](N)CNC(=O)[C@H]([C@H]2CCNC(=N)N2)NC(=O)/C(=C/NC(N)=O)NC(=O)[C@H](CNC(=O)C[C@@H](N)CCCN)NC1=O | 60.5 µM (≈ 39.5 µg/mL) | – | – | – | 1.72 µM (≈ 1.12 µg/mL) | –
10 | NNC(=O)c1ccncc1 [ISONIAZID] | > 5 µM | 0.23 µM (≈ 0.0315 µg/mL) | 0.28 µM (≈ 0.0384 µg/mL) | 0.35 µM (≈ 0.048 µg/mL) | > 5 µM | > 5 µM
